Results taken from patent publication US20110293524A1, “METHODS AND COMPOSITIONS FOR THE REGULATION OF LECTIN COMPLEMENT PATHWAY (LCP)-ASSOCIATED COMPLEMENT ACTIVATION IN HYPERGLYCEMIC MYOCARDIAL DAMAGE” (The Brigham and Women"s Hosptial Inc., priority 2008, published 2011).

Legend:
Format in all cases: in vivo
[1] = tested on: diabetic WT mice; experiment: Left ventricular long and short axis area measurements by echocardiography before MI/R; settings: STZ-diabetic WT mice, insulin 2-6 IU i.p. daily for 2 weeks
Protocol: (§1) All animals used in MI/R experiments were male mice aged 8-12 wk old. C57BL/6 [wildtype (WT)] mice were obtained from Charles River Laboratories (Wilmington, Mass.). MBL null animals 21, back-crossed 8-10 generations onto the C57BL/6 background, were used as previously described^2,22. All procedures were reviewed and conducted in accordance with the Institute's Animal Care and Use Committee (IACUC). Experiments were performed according to the standards and principles set forth in the National Institutes of Health (Guide for the Care and Use of Laboratory Animals-DHHS publication no. (NIH) 85-23, revised 1985). […] Three days after STZ injection and immediately before MI/R studies, the urine glucose was assessed with Glucostix (Diastix, Bayer, Elkhart, Ind.). […]
(§2) Echocardiography was performed after mice had underwent experimental MI/R as described above. It has been shown that in the mouse model of MI/R, myocardial damage via infarct analysis is directly correlated with loss of function as measured by echocardiography^2. […] Ejection fraction (EF) was calculated both via left ventricular M-mode measurements and via long axis length and short axis area measurements of the left ventricle (LV)^24,25. […] In some animals, long axis and short axis area measurements of the LV were assessed prior to MI/R to assess myocardial dimensions under nonischemic conditions.

[2] = tested on: diabetic WT mice; experiment: Left ventricular ejection fraction by echocardiography after MI/R (15 min ischemia, 4 h reperfusion); settings: STZ-diabetic WT mice, insulin 2-6 IU i.p. daily for 2 weeks, vs non-treated diabetic WT mice
Protocol: as §1, §2

[3] = tested on: diabetic WT mice; experiment: Serum troponin I concentration after MI/R (ELISA); settings: insulin-treated diabetic animals vs non-treated diabetic WT mice; 15 min ischemia, 4 h reperfusion
Protocol: (§3) All animals used in MI/R experiments were male mice aged 8-12 wk old. C57BL/6 [wildtype (WT)] mice were obtained from Charles River Laboratories (Wilmington, Mass.). MBL null animals 21, back-crossed 8-10 generations onto the C57BL/6 background, were used as previously described^2,22. All procedures were reviewed and conducted in accordance with the Institute's Animal Care and Use Committee (IACUC). Experiments were performed according to the standards and principles set forth in the National Institutes of Health (Guide for the Care and Use of Laboratory Animals-DHHS publication no. (NIH) 85-23, revised 1985). Mice were made diabetic by a single injection of freshly prepared streptozotocin (STZ) solution (200 mg/kg body weight in citrate saline, pH 4.2, i.p., ALEXIS, Lausen, Switzerland)^23. The mice were housed in cages of four mice each and had unlimited access to water and standard mouse chow. Three days after STZ injection and immediately before MI/R studies, the urine glucose was assessed with Glucostix (Diastix, Bayer, Elkhart, Ind.). Mice with urine glucose>500 mg/dl in both tests were presumed to be diabetic. […]
(§4) Hearts were excised and fixed in 10% formalin PBS at 4° C. overnight. […] Serum troponin I concentrations were measured as an index of myocardial cell death using a commercially available ELISA kit (Life Diagnostics, West Chester, Pa.)^26.

[4] = tested on: diabetic WT mice; experiment: Neutrophil infiltration into the myocardium following MI/R (Ly-6G staining, infrared imaging); settings: diabetic WT mice treated with insulin; 15 min ischemia, 4 h reperfusion
Protocol: as §3, with “diabetic. A group of STZ-injected mice was intensively treated with Lantus insulin (Sanofi-Aventis, Bridgewater, N.J.) to rule out any potentially cardiotoxic effects of STZ. Dependent on the individual daily urine glucose, 2-6 IU of insulin was injected (i.p.) daily.” for “diabetic.”

[5] = tested on: diabetic WT mice; experiment: Cardiac progenitor cell (CPC) numbers in heart sections (SCF R/c-kit staining); settings: diabetic WT mice treated with insulin, two weeks of diabetes
Protocol: as §3, with “diabetic. A group of STZ-injected mice was intensively treated with Lantus insulin (Sanofi-Aventis, Bridgewater, N.J.) to rule out any potentially cardiotoxic effects of STZ. Dependent on the individual daily urine glucose, 2-6 IU of insulin was injected (i.p.) daily.” for “diabetic.”

[6] = tested on: diabetic WT mice; experiment: Heart/body weight ratio after 2 weeks of diabetes; settings: STZ-diabetic WT mice, insulin-treated, no MI/R
Protocol: as §3, §4

insulin
diabetic cardiomyopathy as measured by long and short axis measurements via echocardiography [1]: protected diabetic WT mice from diabetic cardiomyopathy | cardiac function (ejection fraction) following MI/R [2]: prevented loss of cardiac function following MI/R | serum troponin I concentrations after MI/R [3]: significantly reduced | inflammatory response (neutrophil infiltration into cardiac tissue) after MI/R [4]: attenuated the inflammatory response | loss of cardiac progenitor cells (CPC) in diabetes [5]: reversed this effect | diabetic cardiomyopathy / hypertrophic remodeling by heart/body weight ratios [6]: protected diabetic WT mice from diabetic cardiomyopathy
